Source: patent US20240285571A1, “METHODS OF TREATING BONE INFECTIONS” (MICROBION CORPORATION, priority 2020, published 2024)
≈ marks a conversion by molar mass, not a printed value. Where two headings read alike, the source gives them in different places.

Key:
E. faecium = assay: Broth microdilution MIC (Example 5); assay type: cell-based; conditions: VRE vanA
Outline: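 CLSI broth microdilution with serial two-fold drug dilutions and a standardized inoculum from a 0.5 McFarland suspension. Bacteria incubated at 35 °C for 16-24 hr. MIC endpoints read visually per CLSI criteria.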

[1] = tested on: relevant ATCC QC organisms; conditions: CLSI established QC range, cited from earlier work
[2] = tested on: vancomycin-intermediate Staphylococcus aureus; assay: Broth microdilution MIC (Example 6); assay type: cell-based
Outline: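 CLSI broth microdilution in cation-adjusted Mueller Hinton broth, test agents 0.06-64 μg/mL from DMSO stocks, inoculum approx. 5×10^5 CFU/mL. Incubation 35° C for 16–20 hr; MIC taken as lowest concentration inhibiting visible growth.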

S. aureus ATCC 29213 = conditions: per CLSI M100-S24 or provided by Microbion; cited from earlier work
[3] = tested on: Corynebacterium resistens; assay: MIC of baseline clinical isolates (Example 8); assay type: cell-based; conditions: Corynebacterium resistens baseline isolates (N′ = 1), central laboratory, mITT
Outline: (§1)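 Clinical isolates, aerobic and anaerobic, from infected bone/implant-adjacent tissue and deep or superficial wound sites (Day 1 and subsequent index-site surgeries); identified centrally; MBN-101 (BisEDT) susceptibility per CLSI.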

Streptococcus oralis = assay: MIC of baseline clinical isolates (Example 8); assay type: cell-based; conditions: Streptococcus oralis baseline isolates (N′ = 1), central laboratory, mITT
Outline: as §1

[4] = tested on: non-speciated Corynebacterium; assay: MIC of baseline clinical isolates (Example 8); assay type: cell-based; conditions: Corynebacterium non-speciated baseline isolates (N′ = 2), central laboratory, mITT
Outline: as §1

## C[C@@H](O)[C@H]1C(=O)N2C(C(=O)O)=C(S[C@@H]3CN[C@H](C(=O)N(C)C)C3)[C@H](C)[C@H]12 [Meropenem]
E. faecium; E. faecium MMX 485
  MIC: >64 µg/mL
[1]; E. coli ATCC 25922
  MIC QC range (in parentheses): (0.008-0.06) μg/mL
[1]; E. coli ATCC 35218
  MIC QC range (in parentheses): (0.008-0.06) μg/mL
[1]; K. pneumoniae ATCC BAA-1705
  MIC QC range (in parentheses): (8-64) μg/mL
[1]; P. aeruginosa ATCC 27853
  MIC QC range (in parentheses): (0.12-1) μg/mL

## OCC(S)CS.[Bi] (centres unmarked) [MB-2B, bismuth-2,3-dimercaptopropanol]
E. faecium; Enterococcus faecium, VRE, E. faecium MMX 485
  MIC: 2 µg/mL
E. faecium; Enterococcus faecium, VRE, E. faecium MMX 752
  MIC: 4 µg/mL
[2]; Staphylococcus aureus, NRS1
  MIC: 1 µg/mL
[2]; Staphylococcus aureus, NRS2
  MIC: 0.5 µg/mL
[2]; Staphylococcus aureus, NRS3
  MIC: 2 µg/mL
[2]; Staphylococcus aureus, NRS4
  MIC: 1 µg/mL
[2]; Staphylococcus aureus, NRS13
  MIC: 1 µg/mL
[2]; Staphylococcus aureus, NRS18
  MIC: 1 µg/mL
[2]; Staphylococcus aureus, NRS22
  MIC: 2 µg/mL
[2]; Staphylococcus aureus, NRS24
  MIC: 1 µg/mL
[2]; Staphylococcus aureus, NRS27
  MIC: 1 µg/mL

## CC(S)C(C)S.[Bi] (centres unmarked) [MB-6, bismuth-2,3-butanedithiol]
[2]; Staphylococcus aureus, NRS1
  MIC: 0.12 µg/mL
[2]; Staphylococcus aureus, NRS2
  MIC: ≤ 0.06 µg/mL
[2]; Staphylococcus aureus, NRS24
  MIC: 1 µg/mL
S. aureus ATCC 29213
  MIC, acceptable range: 0.12 to 0.5 µg/mL
  MIC, expected results: 0.25 µg/mL

## NCC[C@H](O)C(=O)N[C@@H]1C[C@H](N)[C@@H](O[C@H]2O[C@H](CN)[C@@H](O)[C@H](O)[C@H]2O)[C@H](O)[C@H]1O[C@H]1O[C@H](CO)[C@@H](O)[C@H](N)[C@H]1O [Amikacin]
S. aureus ATCC 29213
  MIC, acceptable range: 1 to 4 µg/mL
  MIC, expected results: 2 µg/mL (≈ 3.42 µM)
[1]; P. aeruginosa ATCC 27853
  MIC QC range (in parentheses): (1-4) μg/mL

## C[C@H]1COc2c(N3CCN(C)CC3)c(F)cc3c(=O)c(C(=O)O)cn1c23 [Levofloxacin]
E. faecium; E. faecium MMX 485
  MIC: >64 µg/mL
[3]
  MIC: 0.12 µg/mL
  n (% resistant): 0 (0.0) n (%)
Streptococcus oralis
  MIC: 2 µg/mL
  n (% resistant): 0 (0.0) n (%)
[4]
  MIC: 0.18 µg/mL
  n (% resistant): 0 (0.0) n (%)
[2]; Staphylococcus aureus, NRS1, S. aureus isolate NRS 1 (hVISA), read-out: MIC
  MIC: 4 µg/mL
[2]; Staphylococcus aureus, NRS2, S. aureus isolate NRS 2, read-out: MIC
  MIC: 4 µg/mL
[2]; Staphylococcus aureus, NRS3, S. aureus isolate NRS 3, read-out: MIC
  MIC: > 8 µg/mL
[2]; Staphylococcus aureus, NRS4, S. aureus isolate NRS 4, read-out: MIC
  MIC: 4 µg/mL
[2]; Staphylococcus aureus, NRS13, S. aureus isolate NRS 13, read-out: MIC
  MIC: 0.12 µg/mL
[2]; Staphylococcus aureus, NRS18, S. aureus isolate NRS 18, read-out: MIC
  MIC: 4 µg/mL
[2]; Staphylococcus aureus, NRS22, S. aureus isolate NRS 22, read-out: MIC
  MIC: 8 µg/mL
[2]; Staphylococcus aureus, NRS24, S. aureus isolate NRS 24 (hVISA), read-out: MIC
  MIC: > 8 µg/mL
[2]; Staphylococcus aureus, NRS27, S. aureus isolate NRS 27, read-out: MIC
  MIC: 8 µg/mL

## CC(C)(O/N=C(\C(=O)N[C@@H]1C(=O)N2C(C(=O)[O-])=C(C[n+]3ccccc3)CS[C@H]12)c1csc(N)n1)C(=O)O [Ceftazidime]
E. faecium; E. faecium MMX 485
  MIC: >32 µg/mL
[1]; E. coli ATCC 25922
  MIC QC range (in parentheses): (0.06-0.5) μg/mL
[1]; P. aeruginosa ATCC 27853
  MIC QC range (in parentheses): (1-4) μg/mL

## CCC[C@@H]1C[C@@H](C(=O)N[C@@H]([C@H]2O[C@H](SC)[C@H](O)[C@@H](O)[C@H]2O)[C@H](C)Cl)N(C)C1 [CLI]
[3]
  Mean MIC: 0.50 µg/mL
  n (% resistant): 0 (0.0) n (%)
Streptococcus oralis
  Mean MIC: 0.03 µg/mL
  n (% resistant): 0 (0.0) n (%)
[4]
  Mean MIC: 1.06 µg/mL
  n (% resistant): 1 (50.0) n (%)
[2]; S. aureus isolate NRS 1 (hVISA)
  MIC: >8 µg/mL
[2]; S. aureus isolate NRS 2
  MIC: >8 µg/mL
[2]; S. aureus isolate NRS 3
  MIC: >8 µg/mL
[2]; S. aureus isolate NRS 4
  MIC: >8 µg/mL
[2]; S. aureus isolate NRS 13
  MIC: 0.06 µg/mL
[2]; S. aureus isolate NRS 18
  MIC: >8 µg/mL
[2]; S. aureus isolate NRS 22
  MIC: >8 µg/mL
[2]; S. aureus isolate NRS 24 (hVISA)
  MIC: >8 µg/mL
[2]; S. aureus isolate NRS 27
  MIC: >8 µg/mL
[1]; S. aureus ATCC 29213
  MIC QC range (in parentheses): (0.06-0.25) μg/mL
